According to patent US20230181430A1, “TOPICAL FORMULATIONS COMPRISING DUTASTERIDE FOR TREATING DERMATOLOGICAL DISORDERS INCLUDING MALE PATTERN BALDNESS” (XYON Health Inc., priority 2020, published 2023):
Where “and” joins values, the source holds several entries; their conditions need not be identical. Identical values can stand only once. Like-named read-outs stand apart in the source and are kept apart here.

What was measured:
[1] = cited from earlier work
[2] = In vitro skin permeation assessment of dutasteride (Franz cell); type: in vitro ADME; details: 1-24 hours, human epidermis
Experimental: To investigate the impact of the siliconic components in dutasteride-loaded formulations, in vitro tests were conducted to measure the permeation through and retention into skin epidermis of a 1% dutasteride-loaded silicone gel formulation made according to the process of Example 2. As a comparison, a gel spray of dutasteride without silicone (PEG-8 Dimethicone or Poly(methylsilsesquioxane)) was also prepared. An original Franz-type diffusion cell system was modified to accommodate widened vertical columns and removal of the bowl shape. The diffusion area was 0.636 cm^2 with a receiver capacity of approximately 3.0 mL. The receiver volume for each cell was individually calibrated.
Human epidermis samples were prepared according to standard protocols. The samples were obtained from abdominal skin of two 30-50 year old Eurasiatic donors. The samples were used as a membrane between the two chambers in the Franz cells. […]
Before being mounted on the Franz cell, each epidermal sheet was visually inspected to avoid any possible defects. Additionally, the electrical resistance of isolated epidermis was measured to ensure the integrity of the barrier membrane. […]
The prepared Franz cells were stirred continuously using a magnetic stir bar at a temperature of 37° C. […] After standing for 24 hours, the supernatant was centrifuged at 3000 rpm for 10 minutes at 23° C. and analyzed by HPLC. […]

[3] = experimental; cited from earlier work
[4] = in vivo; cited from earlier work
serum DHT = details: cited from earlier work; for reduction of serum DHT levels: oral administration / oral formulations
[5] = after oral administration; cited from earlier work

Row | Compound | plasma protein binding [1] | dutasteride in the receiver compartment [2] | logP [3] | volume of distribution [4] | suppression of DHT production (serum DHT; after sustained oral administration) | systemic clearance (CL) [5] | reduction of serum DHT levels (serum DHT) | reduction of serum DHT levels (serum DHT; listed as Finasteride)
1 | C[C@]12C=CC(=O)N[C@@H]1CC[C@@H]1[C@@H]2CC[C@]2(C)[C@@H](C(=O)Nc3cc(C(F)(F)F)ccc3C(F)(F)F)CC[C@@H]12 [dutasteride, Dutasteride] | 99% | never detected | 6.8 | 300 to 500 L | up to 99% |  |  | 
2 | CC(C)(C)NC(=O)[C@H]1CC[C@H]2[C@@H]3CC[C@H]4NC(=O)C=C[C@]4(C)[C@H]3CC[C@]12C [finasteride, Finasteride] |  |  | 3.03 | 44 to 96 L |  | 165 mL/min | 60 to 70% and 60-70% | 65-70%
